Square brackets hold non-standard residues; d marks the D form. Ends that are not written are not given here.
Assays:
[1] = system: IMQ-induced psoriasis in BALB/c mice; experiment: Imiquimod-induced psoriasis in mice, ear histopathology; type: in vivo, mouse; conditions: Prednisolone 10 mg/kg PO daily; for inflammation of the ear (average histopathology grade) vs vehicle-IMQ group: statistically significant
Method: Female BALB/cAnNCrl mice (Charles River, age 8 to 10 weeks at study start) have been assigned to the following groups (treatment schedule):
In this experiment, two positive controls have been utilized. Firstly, Prednisolone at 10 mg/kg (vehicle: 1% Hydroxyethylcellulose, 0.25% Polysorbate 80, and 0.05% Antifoam in purified water) has been dosed daily and orally (group “Prednisolone”). Secondly, Dexamethasone has been administered at 0.5 mg/kg (vehicle: sterile 0.9% NaCl) on days 1, 4 and 7 via intravenous route.
On day 8, animals have been sacrificed and the tissue (ear) has been fixed in 10% neutral buffered formalin. For histopathology hematoxylin-and-eosin-stained sections (cross cut) have been prepared and microscopic evaluation on the collected tissues from all animals has been performed. Methods and end-points for histopathology were similarly described in the van der Fits (2009) paper in that inflammation, epidermal hyperplasia, epidermal hyperkeratosis (rather than parakeratosis) were observed and recorded for severity grade, whereby the respective methodology from Van der Fits et al. (The Journal of Immunology 2009, 182, P. 5836-5845) is hereby incorporated by reference. Histopathology grading scores were excluded for either skin or ear in animals with secondary inflammatory processes (full thickness epidermal ulcers). Scores were averaged by group and standard deviation and statistical significance were calculated. […] Formalin-fixed, paraffin embedded skin from the dorsal surface of the mouse (BALB/c) was stained with hematoxylin and eosin (H&E) stain and assessed microscopically. An important difference from the above reference and to describe in more detail the observations of the present study: Hyperkeratosis can be defined specifically as orthokeratotic (no retained nuclei) or parakeratotic (retained nuclei). Either can occur normally in various anatomical locations and depending on species; however, both conditions are well defined in particular disease states. The van der Fits paper describes their Imiquimod (IMQ)-induced psoriasis model as causing parakeratotic hyperkeratosis similar to what is seen in the human condition, and that was a defined end-point for this study. However, the Danilenko et al. (Veterinary Pathology 2008 45:563) has shown that many rodent psoriasis models have orthokeratotic hyperkeratosis. […] The more general term ‘hyperkeratosis’ was used for grading end-points and describe in the text what type was seen (primarily orthokeratotic).
1=MI=minimal 2=SL=slight 3=M0=moderate 4=MA=marked 5=SE=severe

[2] = system: established type II collagen arthritis in rats; conditions: Dex 0.05 mg/kg IV QD
[3] = system: endotoxins-induced uveitis albino rat model; experiment: Endotoxins-induced uveitis (EIU), single intravenous injection, clinical scoring 24 h after LPS; type: in vivo; parameters: key to EIU clinical score, median: clinical score per eye, 0 to 4 scale; conditions: 20 μg/eye sub-conjunctival, 24 hours after LPS
Method: The aim of this study was to determine the effects of single intravenous injections of SEQ ID NO: 172 (0.015, 0.18, and 1.80 mg/kg) on the inflammatory response in an endotoxins-induced uveitis albino rat model and to compare these affects to those obtained with prior art JNK inhibitor of SEQ ID NO: 197 (2 mg/kg). As a further control served phosphate sodic dexamethasone.
Sixty (60) male Lewis rats were randomly divided into six (6) groups of ten (10) animals each. EIU was induced by footpad injection of lipopolysaccharide (LPS, 1 mg/kg). NaCl (0.9%), SEQ ID NO: 197 at 2 mg/kg and SEQ ID NO: 172 at three concentrations (1.80 mg/kg, 0.18 mg/kg and 0.015 mg/kg) were administered by intravenous injection. Phosphate sodic dexamethasone (20 μg/eye) was administered by sub-conjunctival injection in both eyes. 24 hours after LPS injection, inflammatory response was evaluated by clinical scoring.
The intensity of clinical ocular inflammation was scored on a scale from 0 to 4 for each eye: […]

Hela cells = experiment: Internalization of TAT derived transporters, 24 hours, fluorescence of cell extracts (FIG. 6); type: cell-based; conditions: Y in position 2
Method: The transporter sequences analyzed correspond to SEQ ID NOs: 52-94 plus SEQ ID NOs: 45, 47, 46, 43 and 99 (FIG. 6a) and SEQ ID NOs: 100-147 (FIG. 6b). […] Hela cells were incubated 24 hours in 96 well plate with […] of the respective transporters. The cells were then washed twice with an acidic buffer (0.2M Glycin, 0.15M NaCl, pH 3.0) and twice with PBS. Cells were broken by the addition of RIPA lysis buffer. The relative amount of internalized peptide was then determined by reading the fluorescence intensity (Fusion Alpha plate reader; PerkinElmer) of each extract followed by background subtraction.
Hela cells were incubated 24 hours in 96 well plate with […] of the r3-L-TAT-derived transporters. The cells were then washed twice with an acidic buffer (0.2M Glycin, 0.15M NaCl, pH 3.0) and twice with PBS. Cells were broken by the addition of RIPA lysis buffer. The relative amount of internalized peptide was then determined by reading the fluorescence intensity (Fusion Alpha plate reader; PerkinElmer) of each extract followed by background subtraction

C[C@]12C=CC(=O)C=C1CC[C@@H]1[C@@H]2[C@@H](O)C[C@@]2(C)[C@H]1CC[C@]2(O)C(=O)CO [Prednisolone, reference compound]
epidermal hyperkeratosis of the ear, average grades vs vehicle-IMQ group [1]: minimally decreased average grades
epidermal hyperplasia of the ear vs vehicle-IMQ group ([1]; not statistically significant): below that of the vehicle-IMQ dose group
inflammation of the ear (average histopathology grade) vs vehicle-IMQ group [1]: decreased inflammation of the ear
inflammation of the ear (average histopathology grade) vs vehicle-IMQ group ([1]; listed as prednisolone): significant differences from the vehicle control group

C[C@@H]1C[C@H]2[C@@H]3CCC4=CC(=O)C=C[C@]4(C)[C@@]3(F)[C@@H](O)C[C@]2(C)[C@@]1(O)C(=O)CO [dexamethasone, reference compound]
spleen weights relative to body weight vs disease controls [2]: significantly (p<0.05 by ANOVA) reduced
thymus weights relative to body weight vs disease controls [2]: significantly (p<0.05 by ANOVA) reduced
EIU clinical score, mean±SEM [3]: 0.8±0.2
EIU clinical score, median [3]: 0.5
reduction of clinical scores vs vehicle [3]: 79%

rYKRrQRRr ([dR]YKR[dR]QRR[dR]) [SEQ ID NO: 142]
transporter activity and kinetics of transport (position scan) (Hela cells): highest transporter activity
